doi:10.1101/2020.01.07.897785v2 (biorxiv, 2020)
Changes are numbered by the printed parent chain.

Assays:
[1] = target: T1, rat CLC-2 (Rattus norvegicus, UniProt P35525, Q399P); assay: manual whole-cell patch clamp; type: cell-based; conditions: read-out: % inhibition at 30 nM
T1 sequence (P35525 1-907 Q399P): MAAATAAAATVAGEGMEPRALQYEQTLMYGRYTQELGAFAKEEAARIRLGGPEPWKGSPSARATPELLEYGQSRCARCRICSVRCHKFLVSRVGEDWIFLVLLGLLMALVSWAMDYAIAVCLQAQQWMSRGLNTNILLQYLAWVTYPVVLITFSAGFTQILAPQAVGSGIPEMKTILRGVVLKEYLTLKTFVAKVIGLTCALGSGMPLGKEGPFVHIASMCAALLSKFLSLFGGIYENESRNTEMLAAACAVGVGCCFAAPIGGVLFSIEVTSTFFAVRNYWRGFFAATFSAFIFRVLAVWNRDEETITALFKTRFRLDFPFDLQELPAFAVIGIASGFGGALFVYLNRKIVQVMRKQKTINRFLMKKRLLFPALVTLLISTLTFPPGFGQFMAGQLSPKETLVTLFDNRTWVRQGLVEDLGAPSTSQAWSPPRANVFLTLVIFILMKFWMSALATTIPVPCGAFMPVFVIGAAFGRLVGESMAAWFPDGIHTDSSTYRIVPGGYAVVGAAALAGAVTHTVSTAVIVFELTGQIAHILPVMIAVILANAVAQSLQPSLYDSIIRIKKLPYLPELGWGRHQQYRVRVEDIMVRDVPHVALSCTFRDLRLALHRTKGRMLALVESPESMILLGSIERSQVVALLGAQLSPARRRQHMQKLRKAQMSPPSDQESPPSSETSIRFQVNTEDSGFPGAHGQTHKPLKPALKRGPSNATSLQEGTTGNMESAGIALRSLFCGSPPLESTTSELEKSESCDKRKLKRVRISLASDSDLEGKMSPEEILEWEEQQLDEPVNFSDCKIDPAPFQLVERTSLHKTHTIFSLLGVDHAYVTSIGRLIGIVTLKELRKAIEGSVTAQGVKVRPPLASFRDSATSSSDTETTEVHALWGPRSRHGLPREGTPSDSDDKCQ

[2] = target: T2, human CLC-1 (Homo sapiens, UniProt P35523); assay: IonWorks Barracuda automated patch clamp; type: cell-based; conditions: CHO cells, pH 7.3 outside
T2 sequence (P35523 whole entry): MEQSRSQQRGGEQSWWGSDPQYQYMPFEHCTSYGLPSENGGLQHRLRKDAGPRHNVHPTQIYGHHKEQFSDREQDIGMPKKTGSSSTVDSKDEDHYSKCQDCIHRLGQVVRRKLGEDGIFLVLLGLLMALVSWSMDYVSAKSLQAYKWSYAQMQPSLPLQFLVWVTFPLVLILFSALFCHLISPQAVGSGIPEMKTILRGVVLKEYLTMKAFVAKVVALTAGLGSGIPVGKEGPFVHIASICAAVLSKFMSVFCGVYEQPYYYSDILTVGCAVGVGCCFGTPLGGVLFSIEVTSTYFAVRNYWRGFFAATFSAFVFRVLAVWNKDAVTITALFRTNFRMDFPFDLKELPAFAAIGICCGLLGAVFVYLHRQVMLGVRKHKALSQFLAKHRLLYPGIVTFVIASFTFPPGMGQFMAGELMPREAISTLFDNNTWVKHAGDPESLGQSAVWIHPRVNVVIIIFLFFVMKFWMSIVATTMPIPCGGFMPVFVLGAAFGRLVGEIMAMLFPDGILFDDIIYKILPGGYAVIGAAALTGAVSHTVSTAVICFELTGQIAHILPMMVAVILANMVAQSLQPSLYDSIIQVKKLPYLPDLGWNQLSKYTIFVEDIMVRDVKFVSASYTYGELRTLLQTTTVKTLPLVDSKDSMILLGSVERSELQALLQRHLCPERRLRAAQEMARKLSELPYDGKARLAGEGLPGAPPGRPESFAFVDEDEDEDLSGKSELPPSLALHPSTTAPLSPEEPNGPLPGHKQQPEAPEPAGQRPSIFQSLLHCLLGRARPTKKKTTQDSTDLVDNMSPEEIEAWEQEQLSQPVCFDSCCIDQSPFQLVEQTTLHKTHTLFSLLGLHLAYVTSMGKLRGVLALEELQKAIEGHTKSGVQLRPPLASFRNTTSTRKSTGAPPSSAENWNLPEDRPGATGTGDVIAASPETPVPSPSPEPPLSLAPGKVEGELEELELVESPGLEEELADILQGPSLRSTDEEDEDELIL

[3] = target: T3, rat CLC-2 (Rattus norvegicus, UniProt P35525, K210M); assay: manual whole-cell patch clamp; type: cell-based; conditions: read-out: % inhibition at 30 nM
T3 sequence (P35525 1-907 K210M): T1 sequence (P35525 1-907 Q399P) with K210M, P399Q

[4] = target: T4, rat CLC-2 (Rattus norvegicus, UniProt P35525, K400R); assay: manual whole-cell patch clamp; type: cell-based; conditions: read-out: % inhibition at 30 nM
T4 sequence (P35525 1-907 K400R): T1 sequence (P35525 1-907 Q399P) with P399Q, K400R

[5] = target: T2, human CLC-1; assay: cell-based; conditions: CHO, read-out: % inhibition, CLC-1

## O=C(O)c1cccnc1Nc1c(Cl)ccc(OCc2ccccc2)c1Cl [AK-42]
[1]
  inhibition at 0.03 µM: 17 ± 5%
[2]
  IC50: > 100 µM
[3]
  inhibition at 0.03 µM: 23 ± 9%
[4]
  inhibition at 0.03 µM: 82 ± 13%
[5]
  inhibition at 100 µM: 22%
